# Patent US10316100B2, “Treating basal-like genotype cancers” (The UAB Research Foundation, priority 2009, dated 2019)
# B1: construct #2: DDX3 RNAi construct 562-582, SEQ ID NO: 6 and 7 (nucleic acid)
# chain 1: CACCGGAGAAATTATCATGGGAAACCGAAGTTTCCCATGATAATTTCTCC
# chain 2: AAAAGGAGAAATTATCATGGGAAACTTCGGTTTCCCATGATAATTTCTCC
# modifications: expressed or natural sequence
# Experiments:
# [1] = system: 2LMP orthotopic basal B xenografts; assay: In vivo efficacy against 2LMP orthotopic xenografts; set-up: species or system athymic nude mice; conditions: 2LMP xenografts; untreated 8.6 days
# Protocol: (§1) The arrows indicate the interval during which antibody was administered (n=9-10 mice/group).
# (§2) Treatments were initiated once tumors were well-established, with tumor diameters of about 6 mm, and tumor size was monitored over time.
# [2] = system: SUM159 orthotopic basal B xenografts; assay: In vivo efficacy against SUM159 orthotopic xenografts; set-up: species or system athymic nude mice; conditions: untreated 17.9 days
# Protocol: as §1, §2
# [3] = system: triple negative breast cell (TNBC) cell lines (basal); assay: TRA-8 cytotoxicity against the panel of TNBC cell lines; assay type: cell-based, human; conditions: cell lines of basal B subtype (FIG. 1)
# [4] = target: T1, DR5/DDX3/cIAP1 protein complex (Homo sapiens, UniProt Q13490); assay: cIAP1 in the DR5 complex by DR5-coIP, pancreatic cancer cells; assay type: cell-based; conditions: 10 uM AT-406, 1000 ng/ml TRA-8, overnight
# T1 construct: endogenous in cells; host or cells: S2013 (printed S013) and S2VP10 human pancreatic cancer cells
# XIAP = XIAP (Homo sapiens, UniProt P98170); conditions: cited from earlier work
# IAP proteins = assay: Western blot of IAP proteins in total cell lysates with 3H4 antibody, pancreatic cancer cells; assay type: cell-based, human; conditions: S2013 and S2VP10; 1000 ng/ml TRA-8, 10 uM AT-406, overnight
# cIAP1 = cIAP1 (Homo sapiens, UniProt Q13490); conditions: cited from earlier work
# cIAP2 = cIAP2 (Homo sapiens, UniProt Q13489); conditions: cited from earlier work
# [5] = system: human pancreatic cancer cells, S013 and S2VP10; assay: Effect of AT-406 on TRA-8-induced apoptosis of pancreatic cancer cells; assay type: cell-based; conditions: 10 μM AT-406 alone
# From the text: To determine whether AT-406 is able to overcome DR5-apoptosis resistance of pancreatic cancer cells, the effect of AT-406 on TRA-8-induced apoptosis was examined for two lines of human pancreatic cancer cells, S013 and S2VP10, both of which are highly resistant to TRA-8-mediated apoptosis. […] To determine the effect of AT-406 on the DR5/DDX3/cIAP1 protein complex, the amount of cIAP1 was examined by DR5-coIP. […] This was not due to the reduction of DR5-associated DDX3 as DDX3 was equally co-immunoprecipitated with DR5.
# [6] = system: IAP proteins associated with DDX3; assay: IAP proteins in the DDX3 complex, breast cancer cell lines (DDX3 immunoprecipitation, 3H4 blot); assay type: cell-based, human; conditions: panel of breast cancer cell lines; 1000 ng/ml TRA-8, 10 uM AT-406, overnight
# Protocol: FIGS. 10A, 10B, and 10C show the in vitro effect of AT-406 on IAPs in breast cancer cell lines. Human breast cancer cell lines (MB436 and 2LMP (FIG. 10A), SUM159 and SUM149 (FIG. 10B), BT474 and MB468 (FIG. 10C) were treated with control medium (lane 1) or 1000 ng/ml TRA-8 (lane 2), or 10 uM AT-406 (lane 3) or both (lane 4) overnight. Cell lysates from treated cells were immunoprecipitated with an anti-DDX3 antibody (clone 3E4). The precipitated proteins were western blotted and the IAP proteins were detected by 3H4 antibody.
# Effect of AT-406 on expression of IAP proteins in the DDX3 complex was analyzed in a panel of breast cancer cell lines including triple negative and non-triple negative lines. As previously shown, four triple negative breast cancer lines, […], 2LMP (FIG. 10A), SUM 159, and SUM 149 (FIG. 10B) expressed lower levels of cIAP1 or cIAP2 protein when co-immunoprecipitated with DDX3, compared to two non-triple negative lines, BT474 and MB468 (FIG. 10C), which were resistant to TRA-8-mediated apoptosis.
# TRAIL-mediated apoptosis = conditions: cited from earlier work
# DDX3 = assay: siRNA mediated knockdown of DDX3, Western blot in TRA-8-resistant MDA231 cells; assay type: cell-based, human; conditions: among five RNAi constructs
# From the text: Design RNAi: an online design tool, BLOCK-iT RNAi Designer (Invitrogen; Carlsbad, Calif.), was used to identify RNAi targets for DDX3. Five targeted siRNA sequences were selected from the top 10 highest scoring RNAi targets (see Table 1).
# They were then cloned into the BLOCK-iT U6 entry vector. The siRNA is driven by the U6 promoter and can be transiently expressed in most dividing or nondividing mammalian cell types. Resistant cells were transfected with RNAi used LIPOFECTAMINE 2000 (Invitrogen; Carlsbad, Calif.) for the RNAi response. The decreased DDX3 expression was determined by Western blot analysis using anti-DDX3 antibody 36 hours after transfection. […]
# To study the role of DDX3 in DR5 signaling, the importance of endogenous DDX3 in TRA-8-induced apoptosis was examined. […] TRA-8-resistant MDA231 cells were transfected with five RNAi constructs, and protein expression levels of DDX3 were determined by Western blot analysis using monoclonal anti-DDX3 antibody 48 hours post-transfection. […] To further determine the causal role of DDX3 in DR5-mediated apoptosis, DDX3 expression was reduced in a panel of tumor cells and their susceptibility to TRA-8-induced apoptosis analyzed. […]
# Sequence of XIAP (P98170 whole entry): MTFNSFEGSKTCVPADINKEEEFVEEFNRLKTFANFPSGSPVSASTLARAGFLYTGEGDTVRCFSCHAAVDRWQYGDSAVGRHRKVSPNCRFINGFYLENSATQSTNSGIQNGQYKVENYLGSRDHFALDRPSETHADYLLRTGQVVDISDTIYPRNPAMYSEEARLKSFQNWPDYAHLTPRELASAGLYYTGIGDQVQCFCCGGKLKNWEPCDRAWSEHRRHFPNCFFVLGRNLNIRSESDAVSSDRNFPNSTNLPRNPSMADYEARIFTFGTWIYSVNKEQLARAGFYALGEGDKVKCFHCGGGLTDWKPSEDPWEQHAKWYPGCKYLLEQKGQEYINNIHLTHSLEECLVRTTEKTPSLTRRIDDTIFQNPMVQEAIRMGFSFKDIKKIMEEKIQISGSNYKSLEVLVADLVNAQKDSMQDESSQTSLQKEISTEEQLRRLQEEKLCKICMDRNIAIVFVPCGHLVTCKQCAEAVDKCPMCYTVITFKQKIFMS
# Sequence of cIAP2 (Q13489 whole entry): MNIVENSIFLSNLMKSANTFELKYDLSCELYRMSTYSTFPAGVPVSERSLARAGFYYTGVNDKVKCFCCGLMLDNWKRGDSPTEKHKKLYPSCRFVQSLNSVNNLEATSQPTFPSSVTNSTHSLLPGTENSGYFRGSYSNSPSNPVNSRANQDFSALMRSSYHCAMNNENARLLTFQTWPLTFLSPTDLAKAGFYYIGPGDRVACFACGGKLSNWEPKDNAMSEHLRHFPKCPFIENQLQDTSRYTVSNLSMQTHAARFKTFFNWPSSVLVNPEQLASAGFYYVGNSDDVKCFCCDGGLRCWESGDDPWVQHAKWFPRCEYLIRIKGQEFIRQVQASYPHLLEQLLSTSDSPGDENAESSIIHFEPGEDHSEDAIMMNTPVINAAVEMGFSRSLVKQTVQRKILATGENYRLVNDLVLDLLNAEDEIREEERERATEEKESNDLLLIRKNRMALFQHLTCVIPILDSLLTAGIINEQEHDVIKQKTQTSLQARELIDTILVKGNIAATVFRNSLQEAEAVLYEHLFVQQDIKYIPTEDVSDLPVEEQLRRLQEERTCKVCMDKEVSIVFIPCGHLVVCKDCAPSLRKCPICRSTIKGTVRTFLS
# Sequence of cIAP1 (Q13490 whole entry): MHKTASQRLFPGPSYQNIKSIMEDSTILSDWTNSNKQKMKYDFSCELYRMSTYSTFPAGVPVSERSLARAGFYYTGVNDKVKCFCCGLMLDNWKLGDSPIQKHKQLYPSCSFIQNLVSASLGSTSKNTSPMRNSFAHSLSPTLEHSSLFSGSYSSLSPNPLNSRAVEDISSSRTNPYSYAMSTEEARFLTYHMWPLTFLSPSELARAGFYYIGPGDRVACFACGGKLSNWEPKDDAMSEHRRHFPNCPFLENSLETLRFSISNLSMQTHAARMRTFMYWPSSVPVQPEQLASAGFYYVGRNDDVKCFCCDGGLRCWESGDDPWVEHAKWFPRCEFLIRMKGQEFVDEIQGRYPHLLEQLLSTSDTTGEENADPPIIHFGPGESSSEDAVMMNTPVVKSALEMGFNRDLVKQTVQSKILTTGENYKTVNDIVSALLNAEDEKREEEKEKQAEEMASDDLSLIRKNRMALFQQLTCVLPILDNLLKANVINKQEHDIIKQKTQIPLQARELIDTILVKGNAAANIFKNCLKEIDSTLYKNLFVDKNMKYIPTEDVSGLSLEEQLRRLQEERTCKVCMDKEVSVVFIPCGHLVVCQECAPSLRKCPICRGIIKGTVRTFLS
# T1 sequence (Q13490 whole entry, one chain of several): as the sequence (Q13490 whole entry) above
molecule,measurement,setting,value
COc1cccc2c1C(=O)c1c(O)c3c(c(O)c1C2=O)C[C@@](O)(C(=O)CO)C[C@@H]3O[C@H]1C[C@H](N)[C@H](O)[C@H](C)O1 [Adriamycin],tumor doubling time,[1],51.1 days
same,mean tumor doubling time,[2],41.9 days
TRAIL: Recombinant soluble TRAIL purchased from Alexis Biochemicals,cytotoxicity compared with TRA-8,[3],Equivalent cytotoxicity
CN[C@@H](C)C(=O)N[C@H]1CN(C(=O)CC(C)C)CC[C@H]2CC[C@@H](C(=O)NC(c3ccccc3)c3ccccc3)N2C1=O [AT-406],amount of cIAP1 in the DR5 complex,[4],dramatic reduction
same,affinity,XIAP,low nanomolar affinity
same,total IAP protein expression,IAP proteins,did not alter
same,affinity,cIAP1,low nanomolar affinity
same,affinity,cIAP2,low nanomolar affinity
same,cell death,[5],did not induce significant cell death
same,levels of the IAP proteins associated with DDX3,[6],significantly reduced
same,effect on TRAIL-mediated apoptosis,TRAIL-mediated apoptosis,synergistically enhances
B1,rank as inhibitor of DDX3 expression,DDX3,most effective
